Assays:
[1] = target: T1, Poly [ADP-ribose] polymerase tankyrase-1 (Homo sapiens, UniProt O95271); assay: Biochemical Assay: The autoparsylation activity of the TNKS 1/2 or PARP1/2 enzymes was measured by the liquid chromatography-mass spectrometry (LC/MS) detection of nicotinamide as readout. Compound activity in inhibiting the TNKS and PARP autoparsylation was evaluated by IC50 measurements. In the compound screening assays, the reaction is composed of 5 uL of compound in […]-point serial …
T1 sequence (O95271 whole entry): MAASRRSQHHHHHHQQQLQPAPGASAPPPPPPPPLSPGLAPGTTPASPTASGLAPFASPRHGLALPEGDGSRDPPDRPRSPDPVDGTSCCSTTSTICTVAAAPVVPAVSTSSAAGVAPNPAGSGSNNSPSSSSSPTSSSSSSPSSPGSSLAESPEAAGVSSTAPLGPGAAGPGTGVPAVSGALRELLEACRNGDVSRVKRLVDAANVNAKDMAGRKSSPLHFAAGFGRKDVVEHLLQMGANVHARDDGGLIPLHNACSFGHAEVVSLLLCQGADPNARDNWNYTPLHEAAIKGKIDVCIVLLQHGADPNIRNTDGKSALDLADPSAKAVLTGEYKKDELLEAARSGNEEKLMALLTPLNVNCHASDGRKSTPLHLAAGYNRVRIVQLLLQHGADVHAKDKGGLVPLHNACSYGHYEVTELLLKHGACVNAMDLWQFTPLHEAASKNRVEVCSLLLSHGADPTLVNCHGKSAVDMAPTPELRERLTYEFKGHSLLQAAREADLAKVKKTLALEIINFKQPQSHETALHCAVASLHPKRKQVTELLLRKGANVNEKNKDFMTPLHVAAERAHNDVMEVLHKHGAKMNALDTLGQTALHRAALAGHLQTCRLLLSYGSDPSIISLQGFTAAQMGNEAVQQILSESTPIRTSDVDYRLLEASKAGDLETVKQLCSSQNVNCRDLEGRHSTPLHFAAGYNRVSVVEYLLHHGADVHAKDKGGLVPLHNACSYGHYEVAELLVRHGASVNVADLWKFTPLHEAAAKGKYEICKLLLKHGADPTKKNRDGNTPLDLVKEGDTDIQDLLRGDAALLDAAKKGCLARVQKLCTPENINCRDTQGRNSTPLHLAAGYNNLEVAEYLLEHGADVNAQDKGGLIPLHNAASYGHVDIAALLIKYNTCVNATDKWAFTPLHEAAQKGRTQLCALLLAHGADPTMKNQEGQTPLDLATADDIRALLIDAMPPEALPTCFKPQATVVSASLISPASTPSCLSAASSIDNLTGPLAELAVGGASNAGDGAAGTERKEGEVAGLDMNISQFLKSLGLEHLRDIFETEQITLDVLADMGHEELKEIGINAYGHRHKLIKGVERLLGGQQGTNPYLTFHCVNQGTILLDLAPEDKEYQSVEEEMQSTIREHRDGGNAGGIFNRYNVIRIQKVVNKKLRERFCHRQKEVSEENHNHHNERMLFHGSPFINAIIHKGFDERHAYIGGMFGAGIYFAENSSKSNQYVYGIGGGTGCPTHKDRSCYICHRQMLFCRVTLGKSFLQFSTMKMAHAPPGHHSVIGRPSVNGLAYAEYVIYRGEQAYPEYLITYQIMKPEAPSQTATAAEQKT

[2] = target: T2, Poly [ADP-ribose] polymerase tankyrase-2 (Homo sapiens, UniProt Q9H2K2); assay: as above
T2 sequence (Q9H2K2 whole entry): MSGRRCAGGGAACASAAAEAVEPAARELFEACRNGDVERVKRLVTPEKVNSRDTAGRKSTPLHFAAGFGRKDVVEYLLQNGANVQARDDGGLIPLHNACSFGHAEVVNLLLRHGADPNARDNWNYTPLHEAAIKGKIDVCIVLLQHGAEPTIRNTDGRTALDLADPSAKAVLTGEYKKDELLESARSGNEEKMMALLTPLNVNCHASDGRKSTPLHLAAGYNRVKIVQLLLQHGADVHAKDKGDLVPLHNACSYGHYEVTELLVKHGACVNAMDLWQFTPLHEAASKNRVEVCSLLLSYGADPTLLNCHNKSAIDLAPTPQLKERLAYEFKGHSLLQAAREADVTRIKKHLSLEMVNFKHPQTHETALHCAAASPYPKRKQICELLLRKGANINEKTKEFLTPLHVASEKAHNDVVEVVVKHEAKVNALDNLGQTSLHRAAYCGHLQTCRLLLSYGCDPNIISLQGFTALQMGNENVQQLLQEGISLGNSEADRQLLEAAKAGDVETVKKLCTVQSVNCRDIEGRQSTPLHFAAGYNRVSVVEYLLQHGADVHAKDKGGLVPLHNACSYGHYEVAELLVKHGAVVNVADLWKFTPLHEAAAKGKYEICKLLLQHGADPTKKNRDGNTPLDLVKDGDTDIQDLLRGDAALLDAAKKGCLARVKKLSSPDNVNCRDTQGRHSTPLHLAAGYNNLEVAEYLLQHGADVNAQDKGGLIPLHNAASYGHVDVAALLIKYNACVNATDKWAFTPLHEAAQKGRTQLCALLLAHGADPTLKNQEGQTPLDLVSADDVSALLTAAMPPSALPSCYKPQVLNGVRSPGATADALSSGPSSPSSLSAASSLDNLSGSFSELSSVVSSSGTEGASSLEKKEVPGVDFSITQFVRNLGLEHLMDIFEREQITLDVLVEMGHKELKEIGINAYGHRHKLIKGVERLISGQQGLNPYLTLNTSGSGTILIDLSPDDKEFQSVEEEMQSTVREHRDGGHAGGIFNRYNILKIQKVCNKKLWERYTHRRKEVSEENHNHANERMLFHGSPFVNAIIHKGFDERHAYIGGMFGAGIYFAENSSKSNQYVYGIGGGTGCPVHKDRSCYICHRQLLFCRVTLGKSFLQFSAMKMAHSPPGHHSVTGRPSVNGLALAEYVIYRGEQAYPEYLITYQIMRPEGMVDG

## O=c1[nH]c(CN(Cc2cccs2)S(=O)(=O)CCc2ccccc2)nc2c1COCC2
[1]
  IC50: 5120 nM
[2]
  IC50: 910 nM

## O=C(CCc1c[nH]c2ccccc12)N(Cc1nc2c(c(=O)[nH]1)COCC2)Cc1cccs1
[1]
  IC50: 6400 nM
[2]
  IC50: 1580 nM

## O=c1[nH]c(CN(Cc2cccs2)S(=O)(=O)Cc2ccccc2)nc2c1COCC2
[1]
  IC50: 1160 nM
[2]
  IC50: 177 nM
